# Laboratory results from patent publication US4265901A, “2-Oxybenzimidazoline compounds” (priority 1979, dated 1981).
# Counter-ions that a name gives are not always drawn.
# What was measured:
# blowfly larvae [1] = experiment: Blowfly larvae fed on serum of dosed guinea pigs; type: in vivo, Phormia regina; settings: guinea pig, serum at 24 hours
# Protocol: (§1) Representative compounds of the present invention were evaluated against larvae of blowfly (Phormia regina) and against adult housefly (Musca domestica). In these evaluations, the candidate compound was administered to each of two male guinea pigs weighing from about 400 grams to about 1000 grams. Administration was via the intraperitoneal route, the compound having been formulated in sesame oil. At twenty-four hours following administration of the compound, blood was withdrawn from the guinea pigs. The serum portion was isolated and blowfly larvae and adult houseflies were fed on the serum. For the blowfly assay, 10 ml. of serum were placed in a test tube with a wick onto which 50 blowfly larvae were placed. The covered test tube was incubated at 27° C. for 24 hours, at which time efficacy of the candidate compound was determined as the percent mortality of the blowfly larvae, adjusted by normal mortality in a control, and reported according to the following rating scale:
# (§2) Percent mortality was determined separately for each guinea pig.
# adult housefly [2] = experiment: Adult houseflies fed on serum of dosed guinea pigs; type: in vivo, Musca domestica; settings: guinea pig, serum at 24 hours
# Protocol: as §1, §2
# (§3) For the adult housefly test, 10 ml. of serum were employed to saturate a wick which was placed in a petri dish. Twenty-five chilled houseflies were placed in the dish which was then incubated for 24 hours at 27° C. and 50% relative humidity. After the end of the twenty-four hours, the efficacy of the candidate compound was determined as the percent mortality of housefly, adjusted as for blowfly by normal mortality in a control and reported according to the same scale as above.
# guinea pigs = experiment: Mortality of guinea pigs after intraperitoneal dosing; type: in vivo, guinea pig; settings: for death of guinea pigs: two animals
# Protocol: as §1, with “scale: […]” for “scale:”
# adult housefly [3] = experiment: Efficacy against adult housefly, calves subcutaneous pellets (Example 20); type: in vivo, Musca domestica; settings: Musca domestica, sc, test day per line
# Protocol: as §3
# The compound of Example 2, 2-hydroxy-2-(1,1,2,2-tetrafluoroethyl)-4-nitro-6-(trifluoromethyl)benzimidazoline sodium salt, was formulated neat into tablets, each containing about 85 mg. of compound.
# These pellets were implanted in the right shoulder area of two calves, weighing 400 and 373 kilograms respectively, to supply a dose of about 5 mg./kg. (animals #651 and 1511, respectively). Another calf (animal #656) was maintained as a control and two additional calves weighing 336 and 350 kilograms (animals #654 and 655, respectively) received pellets of 2-(1,1,2,2-tetrafluoroethyl)-4-nitro-6-(trifluoromethyl)benzimidazole, to supply a dose of about 5 mg./kg. of compound.
# (§4) As described in preceding examples, blood samples were withdrawn and analyzed for the concentration of the compound in the blood and percent efficacy against adult housefly and blowfly larvae.
# blowfly larvae [4] = experiment: Efficacy against blowfly larvae, calves subcutaneous pellets (Example 20); type: in vivo; settings: Phormia regina, sc, test day per line
# Protocol: as §1
# The compound of Example 2, 2-hydroxy-2-(1,1,2,2-tetrafluoroethyl)-4-nitro-6-(trifluoromethyl)benzimidazoline sodium salt, was formulated neat into tablets, each containing about 85 mg. of compound. […]
# as §4
# calf = experiment: Tolerability in calves (Example 19); type: in vivo
# Protocol: The compound of Example 3, 2-hydroxy-2,6-bis(trifluoromethyl)-4-nitrobenzimidazoline, sodium salt was evaluated as an ectoparasiticide when administered as pellets implanted in the ear of a calf numbered animal 106. The compound was formulated neat, in tablets about 1/8" thick. A total of 14 pellets was inserted into the left ear of a 215-kilogram calf, to supply a dose of about 5 mg./kg. […] Two other calves received intramuscular injections of aqueous solutions of 2-hydroxy-2,6-bis(trifluoromethyl)-4-nitrobenzimidazoline, sodium salt, to provide 5 or 7.5 mg./kg. of animal body weight. (animals 119 and 121 respectively). […] A control animal was also maintained throughout the test period.
# [5] = CRC Handbook of Chemistry and Physics; cited from earlier work
# [6] = calf 654, pellets about 5 mg./kg.
# [7] = calf 655, pellets about 5 mg./kg.
structure (smiles),measurement,setting,value
"CC(C)OC1(C(F)(F)C(F)F)Nc2cc(C(F)(F)F)cc([N+](=O)[O-])c2N1 (centres unmarked) [Example 4, 2-Isopropoxy-2-(1,1,2,2-Tetrafluoroethyl)-4-Nitro-6-(Trifluoromethyl)Benzimidazoline, Potassium Salt]","Efficacy Rating, Blowfly Larvae",blowfly larvae [1]; 5 mg./kg. i.p.,5 (100% dead)
same,"Efficacy Rating, Adult Housefly",adult housefly [2]; 5 mg./kg. i.p.,5 (100% dead)
same,death of guinea pigs,guinea pigs; 10 mg./kg. i.p.,Both guinea pigs died
"O=[N+]([O-])c1cc(C(F)(F)F)cc2c1NC(O)(C(F)(F)C(F)F)N2 (centres unmarked) [Example 8, 2-Hydroxy-2-(1,1,2,2-Tetrafluoroethyl)-4-Nitro-6-(Trifluoromethyl)Benzimidazoline, Lithium Salt]","Efficacy Rating, Blowfly Larvae",blowfly larvae [1]; 5 mg./kg. i.p.,5 (100% dead)
same,"Efficacy Rating, Adult Housefly",adult housefly [2]; 5 mg./kg. i.p.,5 (100% dead)
same,death of guinea pigs,guinea pigs; 20 mg./kg. i.p.,Both guinea pigs died
"O=[N+]([O-])c1cc(C(F)(F)F)cc2nc(C(F)(F)C(F)F)[nH]c12 [2-(1,1,2,2-tetrafluoroethyl)-4-nitro-6-(trifluoromethyl)benzimidazole, reference compound]",Emax at 5 mg/kg,adult housefly [3]; [6],100%
same,Emax at 5 mg/kg,adult housefly [3]; [7],100%
same,Emax at 5 mg/kg,blowfly larvae [4]; [6],100%
same,Emax at 5 mg/kg,blowfly larvae [4]; [7],100%
"O=[N+]([O-])c1cc(C(F)(F)F)cc2c1NC(O)(C(F)(F)C(F)F)N2 (centres unmarked) [Example 7, 2-Hydroxy-2-(1,1,2,2-Tetrafluoroethyl)-4-Nitro-6-(Trifluoromethyl)Benzimidazoline, Silver Salt]",death of guinea pigs,guinea pigs; 25 mg./kg. i.p.,guinea pigs died
same,death of guinea pigs,guinea pigs; 50 mg./kg. i.p.,guinea pigs died
"O=[N+]([O-])c1cc(C(F)(F)F)cc2c1NC(O)(C(F)(F)F)N2 (centres unmarked) [Example 3, 2-Hydroxy-2,6-Bis(Trifluoromethyl)-4-Nitrobenzimidazoline, Sodium Salt, Monohydrate]",swelling post-insertion,"calf; calf 106, 14 ear pellets, about 5 mg./kg., 6 hours and 1 day",Some swelling was noted
same,death of calf,"calf; calf 121, 7.5 mg./kg. intramuscular",found dead on day 2
"N [Ammonia, ammonia]",Kb,[5],1.79×10^-5
"O=[N+]([O-])c1cc(C(F)(F)F)cc2c1NC(O)(C(F)(F)C(F)F)N2 (centres unmarked) [Example 6, 2-Hydroxy-2-(1,1,2,2-Tetrafluoroethyl)-4-Nitro-6-(Trifluoromethyl)Benzimidazoline, Calcium Salt]","Efficacy Rating, Blowfly Larvae",blowfly larvae [1]; 5 mg./kg. i.p.,5 (100% dead)
same,"Efficacy Rating, Blowfly Larvae","blowfly larvae [1]; 10 mg./kg. i.p., Calcium Salt",5 (100% dead)
same,"Efficacy Rating, Adult Housefly",adult housefly [2]; 5 mg./kg. i.p.,5 (100% dead)
same,"Efficacy Rating, Adult Housefly","adult housefly [2]; 10 mg./kg. i.p., Calcium Salt",5 (100% dead)
same,death of guinea pig,"guinea pigs; 5 mg./kg. i.p., one of two animals",Guinea pig died
